# From US11136317B2, “NADPH oxidase 4 inhibitors” (ACTELION PHARMACEUTICALS LTD, priority 2015, dated 2021)
# pIC50: −log10 of the molar value.
# Molecular target: T1, human NOX4 (Homo sapiens, UniProt Q9NPH5)
# T1 construct: The full-length human NOX4 (NM_016931.3) transcript was cloned; expressed in transfected cells
# T1 sequence (Q9NPH5 1-578): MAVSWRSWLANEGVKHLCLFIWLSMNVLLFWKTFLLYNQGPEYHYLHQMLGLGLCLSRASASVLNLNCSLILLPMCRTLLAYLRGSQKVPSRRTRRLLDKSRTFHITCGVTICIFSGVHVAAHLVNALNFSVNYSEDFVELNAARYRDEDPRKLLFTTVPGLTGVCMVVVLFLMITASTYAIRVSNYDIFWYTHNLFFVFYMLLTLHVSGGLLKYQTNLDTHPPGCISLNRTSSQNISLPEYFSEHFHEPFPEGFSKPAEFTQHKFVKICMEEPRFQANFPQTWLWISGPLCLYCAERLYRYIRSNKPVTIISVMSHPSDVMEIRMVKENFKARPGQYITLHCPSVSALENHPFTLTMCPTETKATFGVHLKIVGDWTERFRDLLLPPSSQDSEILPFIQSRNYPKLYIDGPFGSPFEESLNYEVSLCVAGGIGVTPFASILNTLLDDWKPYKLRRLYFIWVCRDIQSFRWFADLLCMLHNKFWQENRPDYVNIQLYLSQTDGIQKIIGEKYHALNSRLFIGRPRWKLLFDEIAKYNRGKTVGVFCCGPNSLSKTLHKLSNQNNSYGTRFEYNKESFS
# T1 sequence (P13498 1-195 partner): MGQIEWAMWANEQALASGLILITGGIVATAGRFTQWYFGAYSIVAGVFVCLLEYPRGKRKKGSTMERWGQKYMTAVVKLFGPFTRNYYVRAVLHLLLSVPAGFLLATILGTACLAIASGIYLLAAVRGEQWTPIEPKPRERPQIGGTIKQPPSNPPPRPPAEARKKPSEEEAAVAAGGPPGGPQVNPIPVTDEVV
# Assay: Amplex Red activity assay (cellular H2O2 formation in hNOX4 T-REx-293 cells)
# Type: cell-based
# Conditions: tet-induced 24 h, extracellular H2O2 by Amplex Red, 60 min 25° C., geometric mean if determined several times
# Outline: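 Tet-induced (1 μg/mL, 24 h) HEK293 T-REx cells stably expressing full-length human NOX4, 20 000 cells/well, exposed to compounds (10 concentrations, 50 μM to 100 nM; 1.25% DMSO) for 60 min at 25°C. Extracellular H2O2 detected by Amplex Red resorufin fluorescence (ex 550/em 600 nm) versus vehicle; IC50 calculated.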
row,SMILES,pIC50
1,"O=C(Nc1ccc2sc(N3CCS(=O)(=O)CC3)nc2c1)c1ccc2c(c1)CCO2 [Example 92, 2,3-Dihydro-benzofuran-5-carboxylic acid [2-(1,1-dioxo-1l6-thiomorpholin-4-yl)-benzothiazol-5-yl]-amide]",5.61
2,"CN1CCC2(CC1)CCN2c1nc2cc(NC(=O)c3ccc4c(c3)CCO4)ccc2o1 [Example 67, 2,3-Dihydro-benzofuran-5-carboxylic acid [2-(7-methyl-1,7-diaza-spiro[3.5]non-1-yl)-benzooxazol-5-yl]-amide]",5.51
3,"CN1CCCC2(C1)CN(c1nc3cc(NC(=O)c4ccc5c(c4)CCO5)ccc3o1)C2 [Example 33, 2,3-Dihydro-benzofuran-5-carboxylic acid [2-(6-methyl-2,6-diaza-spiro[3.5]non-2-yl)-benzooxazol-5-yl]-amide]",5.67
4,"CN(C)CC1CCCN1c1nc2cc(NC(=O)c3ccc4c(c3)CCO4)ccc2s1 (centres unmarked) [Example 117, 2,3-Dihydro-benzofuran-5-carboxylic acid [2-(2-dimethylaminomethyl-pyrrolidin-1-yl)-benzothiazol-5-yl]-amide]",5.42
5,"CN(C)CC1CCCN1c1nc2cc(NC(=O)c3ccc4c(c3)CCO4)ccc2o1 (centres unmarked) [Example 61, 2,3-Dihydro-benzofuran-5-carboxylic acid [2-(2-dimethylaminomethyl-pyrrolidin-1-yl)-benzooxazol-5-yl]-amide]",5.28
6,"CN1CCOc2ccc(C(=O)Nc3ccc4oc(N5CCC(F)(F)CC5)nc4c3)cc21 [Example 187, 4-Methyl-3,4-dihydro-2H-benzo[1,4]oxazine-6-carboxylic acid [2-(4,4-difluoro-piperidin-1-yl)-benzooxazol-5-yl]-amide]",5.47
7,"CN(C)CC1CCN(c2nc3cc(NC(=O)c4ccc5c(c4)CCO5)ccc3s2)C1 (centres unmarked) [Example 105, 2,3-Dihydro-benzofuran-5-carboxylic acid [2-(3-dimethylaminomethyl-pyrrolidin-1-yl)-benzothiazol-5-yl]-amide]",4.83
8,"O=C(Nc1ccc2c(c1)OCO2)c1ccc2sc(N3CCC34COC4)nc2c1 [Example 209, 2-(6-Oxa-1-aza-spiro[3.3]hept-1-yl)-benzothiazole-5-carboxylic acid benzo[1,3]dioxol-5-ylamide]",5.82
9,"O=C(Nc1ccc2c(c1)CCO2)c1ccc2sc(N3CCC(F)(F)CC3)nc2c1 [Example 198, 2-(4,4-Difluoro-piperidin-1-yl)-benzothiazole-5-carboxylic acid (2,3-dihydro-benzofuran-5-yl)-amide]",4.34
10,"COC1CCN(c2nc3cc(NC(=O)c4ccc5c(c4)CCO5)ccc3s2)CC1 [Example 95, 2,3-Dihydro-benzofuran-5-carboxylic acid [2-(4-methoxy-piperidin-1-yl)-benzothiazol-5-yl]-amide]",5.67
11,"CN1CCC2(CC1)CN(c1nc3cc(NC(=O)c4ccc5c(c4)CCO5)ccc3o1)C2 [Example 68, 2,3-Dihydro-benzofuran-5-carboxylic acid [2-(7-methyl-2,7-diaza-spiro[3.5]non-2-yl)-benzooxazol-5-yl]-amide]",5.75
12,"O=C(Nc1ccc2c(c1)OCCO2)c1ccc2sc(N3CCCCC3)nc2c1 [Example 207, 2-Piperidin-1-yl-benzothiazole-5-carboxylic acid (2,3-dihydro-benzo[1,4]dioxin-6-yl)-amide]",4.89
13,"O=C(Nc1ccc2oc(N3CCCC4(COC4)C3)nc2c1)c1ccc2c(c1)CCCO2 [Example 154, Chroman-6-carboxylic acid [2-(2-oxa-6-aza-spiro[3.5]non-6-yl)-benzooxazol-5-yl]-amide]",5.95
14,"CCN(CC)c1nc2cc(NC(=O)c3ccc4c(c3)N(C)CCO4)ccc2o1 [Example 194, 4-Methyl-3,4-dihydro-2H-benzo[1,4]oxazine-6-carboxylic acid (2-diethylamino-benzooxazol-5-yl)-amide]",5.45
15,"CN1CCOc2ccc(C(=O)Nc3ccc4oc(N5CCC(O)CC5)nc4c3)cc21 [Example 186, 4-Methyl-3,4-dihydro-2H-benzo[1,4]oxazine-6-carboxylic acid [2-(4-hydroxy-piperidin-1-yl)-benzooxazol-5-yl]-amide]",5.46
16,"O=C(Nc1ccc2oc(N3CC(O)C3)nc2c1)c1ccc2c(c1)CCCO2 [Example 140, Chroman-6-carboxylic acid [2-(3-hydroxy-azetidin-1-yl)-benzooxazol-5-yl]-amide]",5.60
17,"CC1(O)CN(c2nc3cc(NC(=O)c4ccc5c(c4)CCO5)ccc3s2)C1 [Example 96, 2,3-Dihydro-benzofuran-5-carboxylic acid [2-(3-hydroxy-3-methyl-azetidin-1-yl)-benzothiazol-5-yl]-amide]",5.57
18,"CN1CCOc2ccc(C(=O)Nc3ccc4oc(N5CCCC56COC6)nc4c3)cc21 [Example 184, 4-Methyl-3,4-dihydro-2H-benzo[1,4]oxazine-6-carboxylic acid [2-(2-oxa-5-aza-spiro[3.4]oct-5-yl)-benzooxazol-5-yl]-amide]",5.72
19,"CN1CCN(c2nc3cc(NC(=O)c4ccc5c(c4)CCCO5)ccc3o2)CC1 [Example 156, Chroman-6-carboxylic acid [2-(4-methyl-piperazin-1-yl)-benzooxazol-5-yl]-amide]",5.75
20,"CCN(CC)c1nc2cc(NC(=O)c3ccc4c(c3)CCO4)ccc2s1 [Example 85, 2,3-Dihydro-benzofuran-5-carboxylic acid (2-diethylamino-benzothiazol-5-yl)-amide]",5.78

# These reach a higher pIC50. Values come first.
row,pIC50,SMILES
1,5.96,"CCN(CC)c1nc2cc(NC(=O)c3ccc4c(c3)OCO4)ccc2o1 [Example 139, Benzo[1,3]dioxole-5-carboxylic acid (2-diethylamino-benzooxazol-5-yl)-amide]"
2,6.14,"O=C(Nc1ccc2c(c1)CCO2)c1ccc2sc(N3CCC34COC4)nc2c1 [Example 197, 2-(6-Oxa-1-aza-spiro[3.3]hept-1-yl)-benzothiazole-5-carboxylic acid (2,3-dihydro-benzofuran-5-yl)-amide]"
3,6.07,"O=C(Nc1ccc2oc(N3CCCCC3)nc2c1)c1ccc2c(c1)OCO2 [Example 129, Benzo[1,3]dioxole-5-carboxylic acid (2-piperidin-1-yl-benzooxazol-5-yl)-amide]"
4,6.05,"O=C(Nc1ccc2oc(N3CCC34CCC4)nc2c1)c1ccc2c(c1)CCCO2 [Example 142, Chroman-6-carboxylic acid [2-(1-aza-spiro[3.3]hept-1-yl)-benzooxazol-5-yl]-amide]"
5,6.47,"O=C(Nc1ccc2oc(N3CCC34CCOC4)nc2c1)c1ccc2c(c1)CCO2 (centres unmarked) [Example 71, 2,3-Dihydro-benzofuran-5-carboxylic acid [2-(6-oxa-1-aza-spiro[3.4]oct-1-yl)-benzooxazol-5-yl]-amide]"
6,6.08,"CC(C)(C)OC(=O)C1CN(c2nc3cc(NC(=O)c4ccc5c(c4)CCO5)ccc3o2)C1 [Example 37, 1-{5-[(2,3-Dihydro-benzofuran-5-carbonyl)-amino]-benzooxazol-2-yl}-azetidine-3-carboxylic acid tert-butyl ester]"
7,6.27,"O=C(Nc1ccc2oc(N3CCC4(CCCO4)CC3)nc2c1)c1ccc2c(c1)CCO2 [Example 29, 2,3-Dihydro-benzofuran-5-carboxylic acid [2-(1-oxa-8-aza-spiro[4.5]dec-8-yl)-benzooxazol-5-yl]-amide]"
8,6.25,"CN(c1nc2cc(NC(=O)c3ccc4c(c3)CCO4)ccc2o1)C1(C)COC1 [Example 18, 2,3-Dihydro-benzofuran-5-carboxylic acid {2-[methyl-(3-methyl-oxetan-3-yl)-amino]-benzooxazol-5-yl}-amide]"
9,6.05,"CN(CC1(F)COC1)c1nc2cc(NC(=O)c3ccc4c(c3)CCO4)ccc2o1 [Example 52, 2,3-Dihydro-benzofuran-5-carboxylic acid {2-[(3-fluoro-oxetan-3-ylmethyl)-methyl-amino]-benzooxazol-5-yl}-amide]"
10,6.42,"O=C(Nc1ccc2oc(N3CCC34CCC4)nc2c1)c1ccc2c(c1)CCO2 [Example 35, 2,3-Dihydro-benzofuran-5-carboxylic acid [2-(1-aza-spiro[3.3]hept-1-yl)-benzooxazol-5-yl]-amide]"
11,6.00,"CCNc1nc2cc(NC(=O)c3ccc4c(c3)CCO4)ccc2o1 [Example 119, 2,3-Dihydro-benzofuran-5-carboxylic acid (2-ethylamino-benzooxazol-5-yl)-amide]"
12,6.44,"O=C(Nc1ccc2sc(N3CCC34COC4)nc2c1)c1ccc2c(c1)CCO2 [Example 90, 2,3-Dihydro-benzofuran-5-carboxylic acid [2-(6-oxa-1-aza-spiro[3.3]hept-1-yl)-benzothiazol-5-yl]-amide]"
